Test results taken from patent US12083182B2, “Controlled-release CNP agonists with increased NEP stability” (ASCENDIS PHARMA GROWTH DISORDERS A/S, priority 2016, dated 2024).

Legend:
[1] = Pharmacokinetic profile of CNP-38 after subcutaneous single-dose administration to cynomolgus monkeys; assay type: in vivo; conditions: single s.c. 40 μg/kg
Description: This study was performed in order to test the pharmacokinetics of CNP-38 after subcutaneous (s.c.) administration in cynomolgus monkeys. Three male monkeys (2-4 years old, 3-5 kg) received a single s.c. injection at a dose of 40 μg/kg of CNP-38. Blood samples were collected at 5, 10, 15, 30, 45 min and 1, 2, 4, 8 hours upon dose.
Method: Plasma levels of CNP were analysed using a commercially available competitive radioimmuno-assay (RK-012-03, Phoenix Pharmaceuticals, CA). The assay was applied essentially as described by the manufacturer. The assay is based on competitive binding between 125I-labelled CNP (supplied in the kit) and unlabeled CNP (from study sample or calibrants) to an anti-CNP antibody. […] By measuring the amount of 125I-labelled CNP bound as a function of the concentration of peptide, it is possible to construct a calibration curve from which the concentration of peptide in the sample can be determined.
A few changes to the supplied assay protocol were made. These changes included using in-house CNP calibrant and QC samples to secure consistency between assay runs. […] Due to matrix effects in monkey plasma, the minimal required dilution was set at 1:10, yielding an assay range of 150-1080 μg/mL CNP.

[2] = Evaluation of cardiovascular effects in the conscious telemetered mouse (subcutaneous administration); assay type: in vivo, Crl:CD1(ICR) mice; conditions: 800 μg CNP-38 (eq)/kg sc
Description: Male Crl:CD1(ICR) mice (age range 8-13 weeks and body weight range 27.3-35.6 g at start of dosing) were surgically implanted with a TA11PA-C10 telemetry transmitter (Data Sciences International (DSI)) in the carotid artery. The body of the transmitter was placed subcutaneously in the lateral flank of the mouse. The mice were dosed subcutaneously in a latin square crossover design with at least 72 hours between dosing occasions. […] At least four mice were included at each dose level. Blood pressure (systolic (SAP), diastolic (DAP) and mean (MAP) and heart rate (HR, derived from blood pressure), were recorded using a digital data capture system linked with a DSITM Ponemah data acquisition and analysis system. The capture system allowed recording of the cardiovascular parameters whilst the mice were in individual cages. On the day of each test session the animals were weighed and a predose recording was performed for at least 60 min prior to dosing. Each mouse was returned to the home cage and the cardiovascular parameters were recorded for approximately 48 hours postdose. Blood pressure and HR were reported at the following time points: −30, −20, −10, 5, 15 and 30 min postdose and 1, 2, 6, 12, 18, 24, 30, 36, 42 and 48 hours postdose. Each time point was presented as the average value of five minute's recording prior to the time point. The monitoring period was selected to cover exposure to the test items both prior to and after Tmax.

[3] = doses up to 15 μg/kg, healthy volunteers; cited from earlier work
[4] = in vivo; cited from earlier work

Molecule	tolerability [1]	effect on heart rate (HR) ([2]; up to 48 hours postdose)	effect on blood pressure (MAP) ([2]; 5, 15 and 30 min post dose, CNP-38: 3 of 4 animals)	MAP 5 min post dose (mean±SD) ([2]; 5 min post dose) [mmHg]	MAP 15 min post dose (mean±SD) ([2]; 15 min post dose) [mmHg]	MAP 30 min post dose (mean±SD) ([2]; 30 min post dose) [mmHg]	MAP predose (mean±SD) ([2]; predose) [mmHg]	blood pressure effect [3]	half-life [4] [min]
CC[C@H](C)[C@@H]1NC(=O)[C@H](CCCNC(=N)N)NC(=O)[C@H](CC(=O)O)NC(=O)[C@H](CC(C)C)NC(=O)[C@H](CCCCN)NC(=O)[C@H](CC(C)C)NC(=O)CNC(=O)[C@H](Cc2ccccc2)NC(=O)[C@@H](NC(=O)CNC(=O)[C@H](CCCCN)NC(=O)[C@H](CO)NC(=O)[C@H](CC(C)C)NC(=O)CNC(=O)[C@H](CCCCN)NC(=O)[C@H](CCCCN)NC(=O)[C@H](CC(N)=O)NC(=O)[C@H](C)NC(=O)CNC(=O)[C@H](CCCCN)NC(=O)[C@H](Cc2ccc(O)cc2)NC(=O)[C@H](CCCCN)NC(=O)[C@H](CCCNC(=N)N)NC(=O)[C@H](C)NC(=O)[C@H](CC(N)=O)NC(=O)[C@@H]2CCCN2C(=O)[C@H](Cc2c[nH]cn2)NC(=O)[C@H](CCC(=O)O)NC(=O)[C@H](CCC(N)=O)NC(=O)[C@@H](N)CC(C)C)CSSC[C@@H](C(=O)O)NC(=O)CNC(=O)[C@H](CC(C)C)NC(=O)CNC(=O)[C@H](CO)NC(=O)[C@H](CCSC)NC(=O)[C@H](CO)NC(=O)CNC1=O [CNP-38]	well tolerated	not impacted	significant decrease in MAP	102.0 ± 7.5	89.5 ± 29.4	99.5 ± 25.2	106.8 ± 13.4		
BMN-111								mild hypotension	20
